# Experimental data as given in patent US20130303377A1, “USE OF SINGLE AMINO ACIDS AT LOW CONCENTRATIONS FOR INFLUENCING THE LIFE PROCESSES OF CROPS” (GLOBACHEM, priority 2010, published 2013).
# How the values were obtained:
# [1] = system: mature apple trees of the variety Jonagold, Jonagored mutant; assay: Increase of both the yield and the coloring with apple, Example 3; assay type: in vivo
# Procedure: This experiment was performed on mature apple trees of the variety Jonagold, Jonagored mutant. Unlike the two previous trials, the focus here is primarily on increasing the yield. To achieve this, the treatments have to be started much earlier in the season. The dose is hereby lower than in the two previous applications because the goal is here fruit set and growth inhibition, instead of coloring. One could suffice with two treatments, at the start of the growing season, but several applications over the entire growing season gives a more certain result. The applications in this test were started around the end of flowering and were repeated every 7 to 14 days, depending on the weather conditions. There were in total 7 treatments, more precisely on April 24, May 7, May 14, May 20, June 9, June 16 and June 24. The sprayings were performed with an atomiser.
# Glutamine, each time at a concentration of 50 ppm wt in 300 liter water/ha, and thus a dose of 15 g/ha, was applied both separately and in combination with S-abscisic acid (ABA). In the combination test, ABA was administered at the first 2 sprayings of the season, and always at a concentration of 3.3 ppm in 300 l water/ha spraying liquid, which corresponds to a dosage of 1.0 g/ha of ABA. At the end of the season, the extension of the shoots was measured and the number of fruits per tree determined. Shortly after the end of the sprayings, on June 25, the average fruit diameter was also determined.
# [2] = system: Jonagold; assay: Improvement of the coloring with apple, Example 2; assay type: in vivo
# Procedure: In an experiment similar to Example 1, glutamine was used 2 times on Jonagold, the first time 14 days before the picking and then a few days before the picking. The dosage of the treatment was this time 2 times 15 g/ha (each time with a concentration of 50 ppm wt in an atomisation of each time 300 liter of water per hectare). The % first picking was determined and is shown in Table 2, in comparison with a control test without treatment.
# [3] = system: Jonagored; assay: Improvement of the coloring with apple, Example 4; assay type: in vivo; conditions: glutamine 2.5 g/ha, 4 days before the pick
# Excerpt: In this experiment, glutamine was applied 4 days before the pick on a plot of Jonagored, and in a concentration of 8.3 ppm wt in 300 l/ha, which is equivalent to a dose of 2.5 g/ha of glutamine. In table 4 below the % of first picking is shown.
# [4] = system: mature apple trees of the variety Jonagold (mutant King); assay: Improvement of the coloring with apple, Example 1 (glutamine sprayed before picking); assay type: in vivo; conditions: for kg 1st picking: colored fruits; for Fruit weight: average over the total harvest
# Procedure: This experiment was performed on mature apple trees of the variety Jonagold (mutant King). The sprayings were performed with an atomizer at 300 liter of water/ha. The spray liquid used contained in the first test 300 ppm wt of glutamine and in the second test with a multiple treatment each time 150 ppm wt glutamine. The spray liquid further contained surfactants and a UV filter.
# apples of the trees in the test field were harvested in 3 times. Glutamine was used as active substance, in a first test 2 weeks before the expected first picking date, and in the second test first 2 weeks and then again 1 week before the expected harvest date. The dosages used are shown below. At harvest, the total yield, the kilos colored fruits which could be harvested in the first picking and the average fruit weight over the total harvest (in grams per apple fruit) were determined. The results are shown in Table 1, and compared with a control without treatment.
# [5] = system: wheat seedlings; assay: Growth inhibition with wheat; assay type: in vivo; conditions: for Growth increase (cm): one treatment; for Growth increase (cm) / % wrt control: after 10 days; for % wrt control: growth increase
# Procedure: (§1) This experiment was performed in four repetitions on wheat seedlings. Per repetition six seedlings were sown in a jar and monitored. When the seedlings were about 15 cm high, they were treated once with the following treatments, and after 10 days the growth increase was measured. The dose is given in g/ha whereby the conversion from the concentration was done with a use of 300 l/ha.
# [6] = system: plants; assay: Strength of the response to one single amino acid as a function of dosage; assay type: in vivo; conditions: compared to the intermediate range of 5-15 g/ha
# Excerpt: The location of the peaks of the pattern, i.e. at which concentrations the strongest effects could be recorded, and the location of the valley between two peaks, i.e. the range wherein the response was again a little less, appeared however to depend on the choice of the amino acid and of the life process which one wishes to influence.
# [7] = system: plants; conditions: only glutamic acid; WO 00/25582; cited from earlier work
# [8] = system: plants; conditions: 500 ppm of glutamic acid; EP 1124419; cited from earlier work
# [9] = system: barley seedlings; assay: Growth inhibition with barley; assay type: in vivo; conditions: 250 g/ha, after 8 days
# Procedure: as §1, with “on barley” for “on wheat”, “Per repetition,” for “Per repetition”, “after 8” for “after 10”, “done at” for “done with”, “300 I/ha.” for “300 l/ha.”
# [10] = glutamine 2 × 45 g/ha, 2 weeks and 1 week before expected harvest date
# [11] = glutamine 90 g/ha once, 2 weeks before expected first picking
compound,measurement,setting,value
"NC(=O)CC[C@H](N)C(=O)O [Glutamine, glutamine]",Average Shoot length (cm),"[1]; end of season, glutamine 15 g/ha, 7 treatments",25.6 cm
same,Fruit diameter (mm) on June 25,"[1]; glutamine 15 g/ha, 7 treatments",43.7 mm
same,Increase of fruits per tree versus control,"[1]; glutamine alone, 15 g/ha, 7 treatments",14 fruits per tree
same,Increased yield,"[1]; glutamine alone, extrapolated at 1714 trees/ha and five apples per kilo",~5000 kg/ha
same,Number of fruits,"[1]; per tree, glutamine 15 g/ha, 7 treatments from end of flowering",127
same,"Increase in the first picking, absolute percentage with respect to weight of total harvest","[2]; double treatment of glutamine, versus control",around 10%
same,Increase of the first-picking portion of the harvest,[2]; extrapolated at a Jonagold yield of 60 tons/ha,at least 6 tons/ha
same,% 1st picking,"[2]; glutamine 2 × 15 g/ha, 14 days and a few days before the picking",40%
same,% 1st picking,[3],55.8%
same,Difference of first picking versus control,[4]; dual treatment (2 × 45 g/ha),3 kg
same,Difference of first picking versus control (% of total harvest),[4]; dual treatment (2 × 45 g/ha),10%
same,1st picking in % of the total harvest,[4]; [10],46%
same,kg (total harvest),[4]; [10],39 kg
same,kg 1st picking,[4]; [10],18 kg
same,Fruit weight,[4]; glutamine 2 × 45 g/ha,257 g
same,1st picking in % of the total harvest,[4]; [11],41%
same,kg (total harvest),[4]; [11],39 kg
same,kg 1st picking,[4]; [11],16 kg
same,Fruit weight,[4]; glutamine 90 g/ha once,248 g
same,Increase of first picking versus control,[4]; single treatment (90 g/ha),1 kg
same,Increase of first picking versus control (% of total harvest),[4]; single treatment (90 g/ha),5%
"N[C@@H](Cc1c[nH]cn1)C(=O)O [Histidine, histidine]",Growth increase (cm),[5]; 2 g/ha,10.0 cm
same,Growth increase (cm),[5]; 100 g/ha,10.2 cm
same,Strength of the growth inhibitory response,"[5]; further experiments with only histidine, about 10 g/ha",less than in the tests with the lower (2 g/ha) and higher (100 g/ha) dosages
same,% wrt control,[5]; 2 g/ha,92%
same,% wrt control,[5]; 100 g/ha,94%
same,Strength of the response as a function of dosage,[6],higher response in the range of 0.5-5 g/ha and in a range of 15-250 g/ha
N[C@@H](CCC(=O)O)C(=O)O [glutamic acid],Yield of plants versus control test,[7],did not yield any significant improvement
same,Effect on productivity of plants,[8],only a small effect
"CCOC(=O)C1CC(=O)C(=C(O)C2CC2)C(=O)C1 (stereo not drawn) [Trinexapac-ethyl, trinexapac-ethyl, reference compound]",Growth increase (cm),[5]; 250 g/ha,7.8 cm
same,% wrt control,[5]; 250 g/ha,72%
"CC(C)(C)C(O)(CCc1ccc(Cl)cc1)Cn1cncn1 (stereo not drawn) [Tebuconazole, tebuconazole]",Growth increase (cm),[9]; one treatment,3.2 cm
same,% wrt control,[9]; growth increase,45%
